Experimental data: publication PMC7601839, “Anti-Acne Effects of Cembrene Diterpenoids from the Cultured Soft Coral Sinularia flexibilis” (Marine Drugs, 2020)

Legend:
COX-2 [1] = system: COX-2; parameters: method as in PMID 23774887; conditions: LPS-stimulated RAW264.7 macrophage cells; cited from earlier work
iNOS [2] = system: iNOS; parameters: method as in PMID 23774887; conditions: LPS-stimulated RAW264.7 macrophage cells; cited from earlier work
HaCaT cells [3] = assay: cells; conditions: Homo sapiens, read-out: HaCaT cell viability
Method: (§5) HaCaT cells (10^5 cells/mL) were seeded in 96-well plates and co-treated with testosterone (5 μg/mL) or DHT (5 μg/mL) and test samples with no cytotoxicity for 48 h [2, 25, 26]. Cell proliferative activity was detected by an MTT assay.

HaCaT cells [4] = conditions: 20 nM, 48 h
Method: as §5

iNOS [5] = assay: Western blot of iNOS in LPS-induced RAW 264.7 cells; assay type: cell-based; conditions: 24 h
Method: (§1) Whole-cell lysates were prepared using radioimmunoprecipitation (RIPA) assay. Proteins in lysate samples (30 μg) were analyzed using 10% sodium dodecylsulfate-polyacrylamide gel electrophoresis (SDS-PAGE). Gels were transferred to nitrocellulose membranes and probed with primary iNOS (clone N-20), COX-2 (clone C-20), p-ERK (clone N-20), p-JNK (clone N-20), and glyceraldehyde-3-phosphate dehydrogenase (GAPDH; clone 6C5) antibodies (Santa Cruz Biotechnology, Santa Cruz, CA, USA). Membranes were visualized with a BCIP/NBT kit (Gibco BRL, Grand Island, NY, USA). Protein expression was quantified using the Azure Biosystem C300 Imaging System. GAPDH expression was used as an internal control to compare with protein expressions of iNOS, COX-2, p-ERK, and p-JNK [24].

COX-2 [6] = assay: Western blot of COX-2 in HKC-treated RAW 264.7 cells; assay type: cell-based
Method: as §1
(§2) C. acnes (4 × 10^8 cfu/mL) was heated at 80 °C for 30 min and killed. Heat-killed C. acnes (HKC) was freeze-dried as a powder and maintained at 4 °C until use. RAW 264.7 and HaCaT cells were cultured in DMEM with 10% FBS, 1% penicillin-streptomycin, and 1% L-glutamine at 37 °C in a 5% CO2 atmosphere. RAW 264.7 cells (4 × 10^5 cells/mL) and HaCaT cells (10^5 cells/mL) were seeded in six-well plates and co-treated with HKC (300 μg/mL) and test samples [24]. After 24 h, NO production was determined by adding the Griess reagent in the cell culture medium, and the absorption was measured in an ELISA reader at 530 nm. The sample culture medium was removed, and RAW 264.7 cells and HaCaT cells were washed with PBS.

iNOS [7] = assay: Western blot of iNOS in HKC-treated RAW 264.7 cells; assay type: cell-based
Method: as §1, §2

[8] = system: Dihydrotestosterone-induced HaCaT cells; assay: Anti-proliferative activity in dihydrotestosterone-treated HaCaT cells (MTT); assay type: cell-based, human; conditions: for keratinocyte over-proliferation by DHT: HaCaT keratinocytes
Method: (§3) HaCaT cells (10^5 cells/mL) were seeded in 96-well plates and co-treated with testosterone (5 μg/mL) or DHT (5 μg/mL) and test samples with no cytotoxicity for 48 h. Cell proliferative activity was detected by an MTT assay.

p-ERK [9] = assay: Western blot of p-ERK in LPS-induced RAW 264.7 cells; assay type: cell-based; conditions: 30 min, SC-2 2.5–20 μM, SC-7 5–40 μM, SC-9 2.5–20 μM
Method: as §1

[10] = system: HKC-induced RAW 264.7 cells (NO production); assay: NO production (Griess) in heat-killed C. acnes (HKC)-induced RAW 264.7 cells; assay type: cell-based; conditions: Mus musculus, RAW264.7, 24 h, read-out: IC50 Value of NO Inhibition
Method: as §2

p-JNK [11] = assay: Western blot of p-JNK in LPS-induced RAW 264.7 cells; assay type: cell-based; conditions: 30 min, SC-2 2.5–20 μM, SC-7 5–40 μM, SC-9 2.5–20 μM
Method: as §1

[12] = system: LPS-induced RAW 264.7 cells (NO production); assay: NO production (Griess) in LPS-induced RAW 264.7 cells; assay type: cell-based; conditions: for inhibition at 20 µM / IC50: Mus musculus, RAW264.7, 24 h; for IC50: read-out: IC50 Value of NO Inhibition
Method: (§4) Anti-inflammatory effects were analyzed in RAW 264.7 cells, which were cultured in DMEM with 10% FBS, 1% L-glutamine, and 1% penicillin-streptomycin, and maintained at 37 °C in a 5% CO2 atmosphere. RAW 264.7 cells (4.0 × 10^5 cells/mL) were seeded in 96-well plates and co-treated with LPS (500 ng/mL) and test samples. After 24 h, NO production was determined by Griess reagent, and the absorption was detected at 530 nm. The percentage inhibition of NO production was presented as the anti-inflammatory activity. PGE2 concentrations in cell culture media were determined with a PGE2 enzyme-linked immunosorbent assay (ELISA) kit (Enzo Life Sciences, Farmingdale, NY, USA). The survival rate of RAW 264.7 cells was detected using an MTT assay.

p-ERK [13] = assay: Western blot of p-ERK in HKC-treated HaCaT cells; assay type: cell-based, human; conditions: 30 min after HKC induction
Method: as §1, §2

p-JNK [14] = assay: Western blot of p-JNK in HKC-treated RAW 264.7 cells; assay type: cell-based; conditions: SC-2 2.5–20 μM, SC-7 5–40 μM, SC-9 2.5–20 μM
Method: as §1, §2

[15] = system: Testosterone-induced HaCaT cells; assay: Anti-proliferative activity in testosterone-treated HaCaT cells (MTT); assay type: cell-based, human; conditions: for testosterone-induced HaCaT cell proliferation: SC-2 1.25–5, SC-7 2.5–10, SC-9 0.08–0.32 μM, 48 h
Method: as §3

COX-2 [16] = assay: Western blot of COX-2 in LPS-induced RAW 264.7 cells; assay type: cell-based; conditions: 6 h and 24 h
Method: as §1

[17] = system: LPS-induced RAW 264.7 cells (PGE2 production); assay: PGE2 production (ELISA) in LPS-induced RAW 264.7 cells; assay type: cell-based; conditions: 24 h
Method: as §4

p-ERK [18] = assay: Western blot of p-ERK in HKC-treated RAW 264.7 cells; assay type: cell-based; conditions: SC-2 2.5–20 μM, SC-7 5–40 μM, SC-9 2.5–20 μM
Method: as §1, §2

[19] = Survival rate of RAW 264.7 cells by MTT assay; assay type: cell-based; conditions: mouse, LPS-induced RAW 264.7 cells, read-out: Cell Viability (%)
Method: as §4

HaCaT cells [20] = assay: Cytotoxicity analysis in HaCaT cells; assay type: cell-based, human
[21] = Homo sapiens, dihydrotestosterone-induced HaCaT cells
[22] = Homo sapiens, testosterone-induced HaCaT cells

Row | Structure (SMILES) | accumulation of COX-2 protein (COX-2 [1]) | accumulation of the proinflammatory iNOS protein (iNOS [2]) | iNOS protein expression (iNOS [5]) | COX-2 expression (COX-2 [6]) | iNOS expression (iNOS [7]) | keratinocyte over-proliferation by DHT [8] | inhibition at 2.5 µM [8, 21] | inhibition at 5 µM [8, 21] | p-ERK protein expression (p-ERK [9]) | IC50 [10] | p-JNK protein expression (p-JNK [11]) | inhibition at 20 µM [12] | IC50 [12] | p-ERK protein expression (p-ERK [13]) | p-JNK expression (p-JNK [14]) | inhibition at 2.5 µM [15, 22] | inhibition at 5 µM [15, 22] | testosterone-induced HaCaT cell proliferation [15] | COX-2 protein expression (COX-2 [16]) | viability at 24 h, 20 µM [19] | further results
1 | C=C1C(=O)O[C@]2(C)CC[C@@H]1C[C@@H]1O[C@@]1(C)CC/C=C(\C)CC[C@H]2O [11-epi-sinulariolide] | could reduce | significantly inhibit |  |  |  |  |  |  |  |  |  |  |  |  |  |  |  |  |  |  | 
2 | C[C@]12CCC(=O)C[C@@H]1CC[C@@H]1[C@@H]2CC[C@]2(C)[C@@H](O)CC[C@@H]12 [DHT, dihydrotestosterone] |  |  |  |  |  |  |  |  |  |  |  |  |  |  |  |  |  |  |  |  | viability at 0.1 µg/mL (HaCaT cells [3]): 97.6%; viability at 0.5 µg/mL (HaCaT cells [3]): 103%; viability at 1 µg/mL (HaCaT cells [3]): 105%; viability at 5 µg/mL (HaCaT cells [3]): 118%; HaCaT cell proliferation (HaCaT cells [4]): significantly induced
3 | C=C1C(=O)OC2(C)CCC1CC1OC1(C)CCC=C(C)CCC2=O (stereo not drawn) [SC-2, 11-dehydrosinulariolide] | could reduce | significantly inhibit | decreased iNOS protein expression | no changes | significant inhibitory effects | inhibited keratinocyte over-proliferation | 12.3 ± 3.1% | 16.8 ± 4% | dose-dependent inhibitory effects | 5.81 ± 0.4 µM | dose-dependent inhibitory effects | 92.4 ± 3% | 5.66 ± 0.19 µM | significant inhibitory effects | good inhibitory effects | 13.5 ± 1.1% | 17.4 ± 2.8% | significantly decreased | did not present identical COX-2 inhibitory effects | 102 ± 9.4% | inhibition at 1.25 µM ([8]; Homo sapiens, dihydrotestosterone-induced HaCaT cells, 1.25 μM): 10.6 ± 3%; inhibition at 1.25 µM ([15]; Homo sapiens, testosterone-induced HaCaT cells, 1.25 μM): 11.9 ± 5.5%; inhibitory effect on prostaglandin E2 (PGE2) production [17]: no inhibitory effect; p-ERK expression (p-ERK [18]): good inhibitory effects; concentrations with no cytotoxicity to HaCaT cells (HaCaT cells [20]): 1.25 to 10 µM; growth inhibition of HaCaT cells (HaCaT cells [20]; at high doses): caused growth inhibition
4 | C=C(C(=O)O)[C@@H]1CC[C@@](C)(O)[C@@H]2CC[C@@](C)(O2)[C@@H](OC(C)=O)CC[C@]2(C)O[C@H]2C1 [SC-6, dendronpholide F] |  |  |  |  |  |  |  |  |  |  |  | -15.1% |  |  |  |  |  |  |  | 96.1 ± 0.4% | inhibitory effects on NO expression [12]: no inhibitory effects
5 | C=C1C(=O)OC2(C)CCC1CC1OC1(C)CCC(OC(C)=O)C1(C)CCC2O1 (stereo not drawn) [SC-7, 3,4:8,11-bisepoxy-7-acetoxycembra-15(17)-en-1,12-olide] |  | significantly inhibit | decreased iNOS protein expression | no changes | significant inhibitory effects | inhibited keratinocyte over-proliferation | 9.5 ± 3.2% | 13.1 ± 2.9% | dose-dependent inhibitory effects | 7.42 ± 0.4 µM | dose-dependent inhibitory effects | 50.2 ± 5.5% | 15.2 ± 0.25 µM | significant inhibitory effects | good inhibitory effects | 13.2 ± 0.7% | 14 ± 2% | significantly decreased | did not present identical COX-2 inhibitory effects | 96.1 ± 8.4% | inhibition at 10 µM ([8]; Homo sapiens, dihydrotestosterone-induced HaCaT cells, 10 μM): 13.8 ± 0.8%; inhibition at 10 µM ([15]; Homo sapiens, testosterone-induced HaCaT cells, 10 μM): 20.8 ± 0.9%; inhibitory effect on prostaglandin E2 (PGE2) production [17]: no inhibitory effect; p-ERK expression (p-ERK [18]): good inhibitory effects; concentrations with no cytotoxicity to HaCaT cells (HaCaT cells [20]): 5 to 40 µM
